{"source": "PubChem BioAssay (NCI)", "key": {"[1]": {"system": "RXF-631 renal", "test": "growth of human tumour cells (NCI), 48 h"}, "[2]": {"system": "786-0 renal", "test": "growth of human tumour cells (NCI), 48 h"}}, "note": "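The compound was tested at five concentrations on cells cultured in 96-well plates, with a 48-hour exposure period. TGI is the concentration that stops growth completely.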"}
{"smiles": "COC(=O)C(NC(=O)c1ccccc1)C(c1c(O)cc(O)cc1O)P(=O)(OC)OC", "note": "(configuration not stated)", "values": [{"measurement": "TGI", "setting": "[1]", "result": "> 100", "unit": "µM"}]}
{"smiles": "COc1cc(/C=C2/Oc3c(OC)cccc3C2=O)ccc1O", "values": [{"measurement": "TGI", "setting": "[2]", "result": "> 100", "unit": "µM"}]}
